Several values for one entry are separate records, joined by “and”; a condition that tells them apart may be missing. Equal values may be shown once.
Molecular target: T1, human TAS2R4 (Homo sapiens, UniProt Q9NYW5)
T1 construct: expressed in transfected cells; host or cells: HEK293T-Gα16gust44
T1 sequence (Q9NYW5 1-299): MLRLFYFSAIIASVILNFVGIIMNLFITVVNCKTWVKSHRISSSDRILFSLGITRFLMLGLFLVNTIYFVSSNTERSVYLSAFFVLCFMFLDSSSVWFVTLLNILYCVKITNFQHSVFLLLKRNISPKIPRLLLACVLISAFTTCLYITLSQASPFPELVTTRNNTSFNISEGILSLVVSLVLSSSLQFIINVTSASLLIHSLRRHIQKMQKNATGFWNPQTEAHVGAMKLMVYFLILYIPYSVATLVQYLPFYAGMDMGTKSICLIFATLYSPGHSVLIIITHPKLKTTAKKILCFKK
Assay: Calcium imaging assay (FLIPR), HEK293T-Gα16gust44 cells transfected with human TAS2R4
Type: cell-based
Method: This set of bile acids was chosen because of their commercial availability in high purities, their diversity within the class of bile acids and their previous detection and quantitation in human blood. Stock solutions were prepared in DMSO.
As basal growth medium for the HEK293T-Gα16gust44 cell line[17],[59] served Dulbecco’s modified eagle medium (DMEM) (Thermo Fisher Scientific, Darmstadt, Germany) supplemented with 10 % fetal bovine serum (Sigma-Aldrich, Steinheim, Germany), 2 mM L-glutamine (Sigma-Aldrich, Steinheim, Germany), 100 units/ml penicillin (Sigma Aldrich, Steinheim, Germany) and 100 µg/ml streptomycin (Sigma Aldrich, Steinheim, Germany). Growth conditions were 37 °C, 5 % CO2 and saturated air-humidity[60].
HEK293T-Gα16gust44 cells were seeded on poly-D-lysine (10 µg/ml) coated 96-well plates to reach a confluence of 40-60 % the next day. For transient transfection 150 ng of plasmid DNA containing the receptor of interest and 0.3 µl lipofectamine 2000 (Thermo Fisher Scientific, Darmstadt, Germany) per well were used and transfection took place according to the manual of lipofectamine 2000. […] The empty vector DNA (mock) was transfected as negative control[14],[41].
Cells were loaded using the calcium-sensitive fluorescent dye Fluo-4-AM (Abcam, Cambridge, Great Britain) in the presence of 2.5 mM probenecid (Sigma-Aldrich, Steinheim, Germany) the day after transfection[13],[41]. 1 h after loading, cells were washed with C1 buffer using a BioTek Cell Washer, incubated in the dark for half an hour and washed again. For automated agonist application and measurement of fluorescence changes, a FLIPR^TETRA device (Molecular Devices, San José, United States) was used. Viability of cells was tested by application of 100 nM Somatostatin 14 (Bachem, Bubendorf, Switzerland)[42].
Measured data were negative control corrected by subtracting the signal of the mock-transfected cells and exported to Microsoft Excel using the FLIPR software ScreenWorks 4.2. In Microsoft Excel software, standardization of maximum fluorescence intensities to the basal fluorescence and normalization to the buffer-only control was done to calculate the relative fluorescence changes (ΔF/F).
Initial screening experiments performed in duplicate wells were confirmed by at least one replication and representative traces were selected for display. All dose-response relationships were determined by three independent experiments (biological replicates) performed in duplicates (technical replicates). Threshold concentrations, defined as lowest substance concentrations leading to statistically significant elevated fluorescence changes in receptor-transfected cells compared with empty vector-transfected cells, were determined using SigmaPlot with Student’s t-test to evaluate statistical significance (p < 0.01).

C[C@H](CCC(=O)NCCS(=O)(=O)O)[C@H]1CC[C@H]2[C@@H]3CC[C@@H]4C[C@H](O)CC[C@]4(C)[C@H]3CC[C@]12C [Taurolithocholic Acid, taurolithocholic acid]
Efficacy = maximal amplitude (ΔF/F) (TAS2R4, bile acids, mean): 0.1385
Efficacy (maximal amplitude ΔF/F), individual data points (TAS2R4, bile acids, single replicates, listed as TLCA): 0.1344 and 0.1516 and 0.119 and 0.1444 and 0.143
RLU, fluorescence trace (Time (s) 0): 0 RLU
RLU, fluorescence trace (Time (s) 2): -14.866 RLU
RLU, fluorescence trace (Time (s) 4): -10.9022 RLU
RLU, fluorescence trace (Time (s) 6): -0.9261 RLU
RLU, fluorescence trace (Time (s) 8): -7.834 RLU
RLU, fluorescence trace (Time (s) 12): -12.8379 RLU
RLU, fluorescence trace (Time (s) 14): 6.067 RLU
RLU, fluorescence trace (Time (s) 16): 3.969 RLU
RLU, fluorescence trace (Time (s) 18): -13.8081 RLU
RLU, fluorescence trace (Time (s) 18.766 (TCA, TLCA: 18.782)): -6.318 RLU
RLU, fluorescence trace (Time (s) 20.781 (TCA, TLCA: 20.782)): 0.7554 RLU
RLU, fluorescence trace (Time (s) 22.781 (TCA, TLCA: 22.782)): 22.9324 RLU
RLU, fluorescence trace (Time (s) 24.781 (TCA, TLCA: 24.782)): 4.9 RLU
RLU, fluorescence trace (Time (s) 26.781 (TCA, TLCA: 26.782)): 24.977 RLU
RLU, fluorescence trace (Time (s) 28.781 (TCA, TLCA: 28.782)): 22.993 RLU
RLU, fluorescence trace (Time (s) 30.781 (TCA, TLCA: 30.782)): 49.0114 RLU
RLU, fluorescence trace (Time (s) 32.781 (TCA, TLCA: 32.782)): 81.1426 RLU
RLU, fluorescence trace (Time (s) 34.781 (TCA, TLCA: 34.782)): 109.126 RLU
RLU, fluorescence trace (Time (s) 36.781 (TCA, TLCA: 36.782)): 126.942 RLU
RLU, fluorescence trace (Time (s) 38.781 (TCA, TLCA: 38.782)): 159.412 RLU
RLU, fluorescence trace (Time (s) 40.781 (TCA, TLCA: 40.782)): 175 RLU
RLU, fluorescence trace (Time (s) 42.781 (TCA, TLCA: 42.782)): 193.772 RLU
RLU, fluorescence trace (Time (s) 44.781 (TCA, TLCA: 44.782)): 218.413 RLU
RLU, fluorescence trace (Time (s) 46.781 (TCA, TLCA: 46.782)): 198.067 RLU
RLU, fluorescence trace (Time (s) 48.781 (TCA, TLCA: 48.782)): 224.737 RLU
RLU, fluorescence trace (Time (s) 50.781 (TCA, TLCA: 50.782)): 242.508 RLU
RLU, fluorescence trace (Time (s) 52.781 (TCA, TLCA: 52.782)): 256.995 RLU
RLU, fluorescence trace (Time (s) 54.781 (TCA, TLCA: 54.782)): 227.079 RLU
RLU, fluorescence trace (Time (s) 56.781 (TCA, TLCA: 56.782)): 225.961 RLU
RLU, fluorescence trace (Time (s) 58.781 (TCA, TLCA: 58.782)): 271.056 RLU
RLU, fluorescence trace (Time (s) 60.781 (TCA, TLCA: 60.782)): 261.6 RLU
RLU, fluorescence trace (Time (s) 62.781 (TCA, TLCA: 62.782)): 251.574 RLU
RLU, fluorescence trace (Time (s) 64.781 (TCA, TLCA: 64.782)): 292.569 RLU
RLU, fluorescence trace (Time (s) 66.781 (TCA, TLCA: 66.782)): 280.396 RLU
RLU, fluorescence trace (Time (s) 68.781 (TCA, TLCA: 68.782)): 265.03 RLU
RLU, fluorescence trace (Time (s) 70.781 (TCA, TLCA: 70.782)): 284.572 RLU
RLU, fluorescence trace (Time (s) 72.781 (TCA, TLCA: 72.782)): 284.878 RLU
RLU, fluorescence trace (Time (s) 74.781 (TCA, TLCA: 74.782)): 290.176 RLU
RLU, fluorescence trace (Time (s) 76.781 (TCA, TLCA: 76.782)): 292.885 RLU
RLU, fluorescence trace (Time (s) 78.781 (TCA, TLCA: 78.782)): 302.496 RLU
RLU, fluorescence trace (Time (s) 80.781 (TCA, TLCA: 80.782)): 299.577 RLU
RLU, fluorescence trace (Time (s) 82.781 (TCA, TLCA: 82.782)): 289.637 RLU
RLU, fluorescence trace (Time (s) 84.781 (TCA, TLCA: 84.782)): 284.791 RLU
RLU, fluorescence trace (Time (s) 86.781 (TCA, TLCA: 86.782)): 284.228 RLU
RLU, fluorescence trace (Time (s) 88.781 (TCA, TLCA: 88.782)): 289.096 RLU
RLU, fluorescence trace (Time (s) 90.781 (TCA, TLCA: 90.782)): 288.658 RLU
RLU, fluorescence trace (Time (s) 92.781 (TCA, TLCA: 92.782)): 295.597 RLU
RLU, fluorescence trace (Time (s) 94.781 (TCA, TLCA: 94.782)): 300.252 RLU
RLU, fluorescence trace (Time (s) 96.781 (TCA, TLCA: 96.782)): 303.134 RLU
RLU, fluorescence trace (Time (s) 98.781 (TCA, TLCA: 98.782)): 268.467 RLU
RLU, fluorescence trace (Time (s) 100.781 (TCA, TLCA: 100.782)): 282.827 RLU
RLU, fluorescence trace (Time (s) 102.781 (TCA, TLCA: 102.782)): 280.287 RLU
RLU, fluorescence trace (Time (s) 104.781 (TCA, TLCA: 104.782)): 297.596 RLU
RLU, fluorescence trace (Time (s) 106.781 (TCA, TLCA: 106.782)): 261.785 RLU
RLU, fluorescence trace (Time (s) 108.781 (TCA, TLCA: 108.782)): 279.776 RLU
RLU, fluorescence trace (Time (s) 110.781 (TCA, TLCA: 110.782)): 253.834 RLU
RLU, fluorescence trace (Time (s) 112.781 (TCA, TLCA: 112.782)): 272.21 RLU
RLU, fluorescence trace (Time (s) 114.781 (TCA, TLCA: 114.782)): 268.219 RLU
RLU, fluorescence trace (Time (s) 116.781 (TCA, TLCA: 116.782)): 268.998 RLU
RLU, fluorescence trace (Time (s) 118.781 (TCA, TLCA: 118.782)): 262.891 RLU
RLU, fluorescence trace (Time (s) 120.781 (TCA, TLCA: 120.782)): 267.293 RLU
RLU, fluorescence trace (Time (s) 122.781 (TCA, TLCA: 122.782)): 280.896 RLU
RLU, fluorescence trace (Time (s) 124.781 (TCA, TLCA: 124.782)): 273.898 RLU
RLU, fluorescence trace (Time (s) 126.781 (TCA, TLCA: 126.782)): 249.374 RLU
RLU, fluorescence trace (Time (s) 128.781 (TCA, TLCA: 128.782)): 270.269 RLU
RLU, fluorescence trace (Time (s) 130.781 (TCA, TLCA: 130.782)): 267.674 RLU
RLU, fluorescence trace (Time (s) 132.781 (TCA, TLCA: 132.782)): 259.914 RLU
RLU, fluorescence trace (Time (s) 134.781 (TCA, TLCA: 134.782)): 243.112 RLU
RLU, fluorescence trace (Time (s) 136.781 (TCA, TLCA: 136.782)): 250.545 RLU
RLU, fluorescence trace (Time (s) 137.547): 251.257 RLU
RLU, fluorescence trace (Time (s) 143.547): 215.734 RLU
RLU, fluorescence trace (Time (s) 149.547): 237.866 RLU
RLU, fluorescence trace (Time (s) 155.547): 193.672 RLU
RLU, fluorescence trace (Time (s) 161.547): 207.578 RLU
RLU, fluorescence trace (Time (s) 167.547): 205.902 RLU
RLU, fluorescence trace (Time (s) 173.547): 204.036 RLU
RLU, fluorescence trace (Time (s) 179.547): 180.442 RLU
RLU, fluorescence trace (Time (s) 185.547): 185.763 RLU
RLU, fluorescence trace (Time (s) 191.547): 137.563 RLU
RLU, fluorescence trace (Time (s) 197.547): 147.254 RLU
RLU, fluorescence trace (Time (s) 203.547): 133.472 RLU
RLU, fluorescence trace (Time (s) 209.547): 90.5191 RLU
RLU, fluorescence trace (Time (s) 215.547): 65.3811 RLU
RLU, fluorescence trace (Time (s) 221.547): 77.9879 RLU
RLU, fluorescence trace (Time (s) 227.547): 99.7214 RLU
RLU, fluorescence trace (Time (s) 233.547): 126.783 RLU
RLU, fluorescence trace (Time (s) 239.547): 132.165 RLU
RLU, fluorescence trace (Time (s) 245.547): 104.275 RLU
RLU, fluorescence trace (Time (s) 293.547): 136.191 RLU
RLU, fluorescence trace (Time (s) 299.547): 118.82 RLU
RLU, fluorescence trace (Time (s) 305.547): 140.647 RLU
RLU, fluorescence trace (Time (s) 311.547): 122.148 RLU
RLU, fluorescence trace (Time (s) 317.547): 88.8315 RLU
RLU, fluorescence trace (Time (s) 323.547): 111.642 RLU
RLU, fluorescence trace (Time (s) 329.547): 124.756 RLU
RLU, fluorescence trace (Time (s) 335.547): 109.477 RLU
RLU, fluorescence trace (Time (s) 341.547): 98.825 RLU
RLU, fluorescence trace (Time (s) 347.547): 92.346 RLU
RLU, fluorescence trace (Time (s) 353.547): 124.878 RLU
RLU, fluorescence trace (Time (s) 359.547): 119.545 RLU
Activation threshold concentration TAS2R4 (lowest concentration with significantly increased fluorescence vs empty vector (p < 0.01)): 1 µM

Reference: publication PMC10247784, “Physiological activation of human and mouse bitter taste receptors by bile acids” (Communications Biology, 2023)
